“And” between values parts separate entries of the source, which are not always exact repeats. Equal values may be shown once.
How the values were obtained:
[1] = Time course of blood pyruvate concentration after oral gavage (bioavailability of pyruvate); assay type: in vivo, male Sprague-Dawley rats; details: rat; for Blood pyruvate concentration: single animals
Excerpt: The basic measurement is the time course of serum pyruvate concentration following oral administration of tripyruvin, compared with that following oral administration of sodium pyruvate or a placebo.
Six male Sprague-Dawley rats, weighing 380±28 grams (mean±standard deviation), were used in the initial animal experiments. The rats were divided into three groups of two rats each, one group of two for the experimental treatment, one group for the conventional sodium pyruvate treatment, and one group for placebo. The rats were housed in hanging wire cages (two per cage) in a room maintained at 22° C., and were kept on a twelve-hour light/dark cycle with lights on at 7 AM. All animals had free access to water and to standard laboratory rodent chow; except that on nights before an experiment food was removed at 6 PM.
An initial time-course experiment was performed with the crude reaction mixture, in which tripyruvin and free pyruvate were both present (i.e., with the product of “Step 4” n the synthesis described above, without the further purification of “Step 5.”) 1.14 g of this mixture (76% sodium pyruvate, 24% tripyruvin=0.79 total pyruvate) in 2 mL sterile water was fed by gavage in a single dose. For comparison, rats were fed an equivalent amount of pyruvate as sodium pyruvate in water; or were fed a placebo comprising water only. Blood samples (250 μL) taken from a snipped tail vein were collected before feeding, and at 60, 90, 120, and 150 minutes after gavage feeding.
The assay for serum pyruvate concentration was a modification of the Sigma NADH-NAD assay. Collected blood samples were diluted 1:3 in cold 8% perchloric acid (aqueous), and the precipitates were vortexed and centrifuged. Supernatant (100 μL) was pipetted into a microtiter plate. Trizma base (25 μL) was pipetted into the plate, followed by 25 μL of aqueous NADH solution (1 g/2.2 mL). The absorbance of the solution at 340 nm was then measured as a baseline. […] dehydrogenase (50 μL, 10 U/mL) was then pipetted into the plate, and the plate was incubated at 37° C. for 3-5 minutes. Absorbance at 340 nm was again measured (to assay the extent of the reaction NADH→NAD+H^+). Standards and two levels of quality control samples were run with each plate. Results are shown in Table 1 for each of the six rats.

[2] = Solubility in water; assay type: physicochemical
Excerpt: After purification, the identity of the tripyruvin was confirmed by laser-desorption mass spectrometry, elemental analysis, and ^1H nuclear magnetic resonance.

[3] = oral gavage, compared with sodium pyruvate

| Blood pyruvate concentration ([1]; 60 min after single oral gavage dose in 2 mL water) | Blood pyruvate concentration ([1]; 90 min after single oral gavage dose in 2 mL water) | Blood pyruvate concentration ([1]; 120 min after single oral gavage dose in 2 mL water) | Blood pyruvate concentration ([1]; 150 min after single oral gavage dose in 2 mL water) | Blood pyruvate concentration ([1]; time 0 min (before gavage feeding)) | Solubility in water [2] | Bioavailability of pyruvate [1, 3] | Rise in blood pyruvate levels [1, 3] | SMILES |
| --- | --- | --- | --- | --- | --- | --- | --- | --- |
| 0.07 mM and 0.10 mM | 0.07 mM and 0.09 mM | 0.12 mM | 0.12 mM and 0.16 mM | 0.07 mM and 0.06 mM | – | – | – | CC(=O)C(=O)[O-].[Na+] [sodium pyruvate] |
| – | – | – | – | – | freely soluble | higher | more rapid rise | CC(=O)C(=O)OCC(COC(=O)C(C)=O)OC(=O)C(C)=O [tripyruvin, tripyruvyl glycerol] |
